Target: T1, human TREM2 (Homo sapiens, UniProt Q9NZC2)
T1 construct: expressed in transfected cells; host or cells: HEK293T
Assay: hTREM2 agonist potency by cellular Syk phosphorylation (AlphaLisa) in HEK293T-hTREM2 cells
Format: cell-based
Details: Table D-2; HEK293 cells expressing human TREM2 and DAP12; pSyk AlphaLisa; 45 minutes at room temperature
Experimental: In Vitro Measurement of Triggering Receptor Expressed on Myeloid Cells 2 Activity Using Cellular Phosphorylation of Spleen Tyrosine Kinase (“Syk”) Assays
Measurement of TREM2 agonist potency was done using a HEK cell line expressing human TREM2 and DAP12 (HEK293T-hTREM2 cells). Binding of small molecules to, and activation of, TREM2 increases the phosphorylation of Syk. The resultant levels of Syk phosphorylation are measured using a commercial AlphaLisa reagent kit. To perform the assay, HEK-hTREM2 cells were plated at 14,000 cells per well in a 384 well plate, in 25 μL of complete growth media and incubated at 37° C., 5% CO2 for 20-24 hours.
Prior to the assay, test compounds were diluted in the 384 well plates in assay buffer and allowed to equilibrate for 30 minutes. Growth media was removed from cell plates by inversion on blotting paper, and 25 μL of test articles in assay buffer was added to cells. Cells were incubated for 45 minutes at room temperature. After 45 minutes, assay buffer was removed and 10 μL of lysis buffer was added. Plates were shaken for 20 minutes at 350 RPM at room temperature. After complete lysis, AlphaLisa reagents were added to the lysate, and fluorescence intensity was measured using a Perkin Elmer Envision plate reader. Intensities were used to generate a standard curve, and % activation was calculated. Curve fitting was performed using Prism v9 software, log (agonist) vs response-variable slope (four parameters), and EC50s were calculated from the curve fit.
The results presented in Table D have been generated with the in vitro assay described above. This assay may be used to test any of the compounds described herein to assess and characterize a compound's ability to act as an agonist of TREM2.

T1 sequence (Q9NZC2 19-230): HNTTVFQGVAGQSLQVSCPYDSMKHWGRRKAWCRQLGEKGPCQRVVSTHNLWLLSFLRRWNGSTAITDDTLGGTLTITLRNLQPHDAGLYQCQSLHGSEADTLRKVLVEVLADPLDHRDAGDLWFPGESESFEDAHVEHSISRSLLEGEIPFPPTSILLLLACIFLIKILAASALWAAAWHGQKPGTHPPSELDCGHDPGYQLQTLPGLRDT
T1 sequence (O43914 22-113 partner): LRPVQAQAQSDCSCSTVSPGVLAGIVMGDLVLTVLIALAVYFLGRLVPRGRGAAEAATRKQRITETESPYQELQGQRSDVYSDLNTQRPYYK

| SMILES | EC50 [nM] |
| --- | --- |
| Cn1ncc2c(-c3ccc(Cl)cc3F)nc(N3C[C@@H](c4cnn(C5CC5)c4)O[C@@H](C4CC4)C3)nc2c1=O (single isomer, unassigned) [I-184] | ≤ 50 |
| Cn1ncc2c(-c3ccc(F)cc3F)nc(C3CCO[C@@H](c4cnn(C5CC5)c4)C3)cc2c1=O (stereo partly drawn) [I-63, 7-[(2R)-2-(1-cyclopropylpyrazol-4-yl)tetrahydropyran-4-yl]-5-(2,4-difluorophenyl)-2-methyl-pyrido[3,4-d]pyridazin-1-one] | 50 to 500 |
| Cc1nc2c(-c3ccc(F)cc3F)nc(N3C[C@@H](C)O[C@@H](c4cnn(C5CC5)c4)C3)nc2c(=O)n1C [I-90, 6-((2S,6R)-2-(1-cyclopropyl-1H-pyrazol-4-yl)-6-methylmorpholino)-8-(2,4-difluorophenyl)-2,3-dimethylpyrimido[5,4-d]pyrimidin-4 (3H)-one] | ≤ 50 |
| Cn1ncc2c(-c3ccc(Cl)cc3F)nc(N3CCOC(c4cnn(C5CC5)c4)C3)cc2c1=O (stereo not shown) [I-45, 5-(4-chloro-2-fluorophenyl)-7-(2-(1-cyclopropyl-1H-pyrazol-4-yl)morpholino)-2-methylpyrido[3,4-d]pyridazin-1 (2H)-one] | 50 to 500 |
| C[C@@H]1CN(c2nc(-c3ccc(F)cc3F)c3ncn(C)c(=O)c3n2)C[C@H](c2cnn(C3CC3)c2)O1 [I-163, 6-((2S,6R)-2-(1-cyclopropyl-1H-pyrazol-4-yl)-6-methylmorpholino)-8-(2,4-difluorophenyl)-3-methylpyrimido[5,4-d]pyrimidin-4 (3H)-one] | ≤ 50 |
| Cn1ncc2c(-c3ccc(C(F)(F)F)cc3F)nc(C3CCO[C@@H](c4cnn(C5CC5)c4)C3)nc2c1=O (stereo partly drawn) [I-84, 2-((2R)-2-(1-cyclopropyl-1H-pyrazol-4-yl)tetrahydro-2H-pyran-4-yl)-4-(2-fluoro-4-(trifluoromethyl)phenyl)-7-methylpyrimido[4,5-d]pyridazin-8 (7H)-one] | 50 to 500 |
| Cc1nc2c(-c3ccc(C(F)(F)F)cc3F)nc([C@@H]3CCO[C@@H](c4cnn(C5CC5)c4)C3)nc2c(=O)n1C [I-132, 6-[(2R,4R)-2-(1-cyclopropylpyrazol-4-yl)tetrahydropyran-4-yl]-8-[2-fluoro-4-(trifluoromethyl)phenyl]-2,3-dimethyl-pyrimido[5,4-d]pyrimidin-4-one] | 50 to 500 |
| COCn1cc([C@H]2CN(c3nc(-c4ccc(Cl)cc4F)c4cnn(C)c(=O)c4n3)C[C@@H](C)O2)cn1 [I-178] | ≤ 50 |
| O=c1c2nc(C3CCOC(c4cnn(C5CC5)c4)C3)nc(-c3ccc(C(F)(F)F)cc3F)c2cnn1C1CC1 (stereo not shown) [I-115] | 500 to 3000 |
| C[C@@H]1CN(c2cc3c(=O)n(C)ncc3c(-c3ccc(F)cc3F)n2)C[C@H](c2cnn(C3CC3)c2)O1 [I-58, 7-[(2S,6R)-2-(1-cyclopropylpyrazol-4-yl)-6-methyl-morpholin-4-yl]-5-(2,4-difluorophenyl)-2-methyl-pyrido[3,4-d]pyridazin-1-one] | ≤ 50 |
| Cc1nc2c(-c3ccc(F)cc3F)nc([C@@H]3CCO[C@@H](c4cnn(C5CC5)c4)C3)nc2c(=O)n1C [I-168] | 50 to 500 |
| Cc1nc2c(-c3ccc(C(F)(F)F)cc3F)nc(N3C[C@@H](C)O[C@@H](c4cnn(C5CC5)c4)C3)nc2c(=O)n1C [I-136, 6-[(2S,6R)-2-(1-cyclopropylpyrazol-4-yl)-6-methyl-morpholin-4-yl]-8-[2-fluoro-4-(trifluoromethyl)phenyl]-2,3-dimethyl-pyrimido[5,4-d]pyrimidin-4-one] | ≤ 50 |
| Cc1nc2c(-c3ccc(Cl)cc3F)nc(N3C[C@@H](C)O[C@@H](c4cnn(C5CC5)c4)C3)nc2c(=O)n1C [I-152, 8-(4-chloro-2-fluoro-phenyl)-6-[(2S,6R)-2-(1-cyclopropylpyrazol-4-yl)-6-methyl-morpholin-4-yl]-2,3-dimethyl-pyrimido[5,4-d]pyrimidin-4-one] | ≤ 50 |
| Cc1nc2nc([C@@H]3CCO[C@H](c4cnn(C5CC5)c4)C3)cc(-c3ccc(F)cc3F)c2c(=O)n1C (single isomer, unassigned) [I-42] | 500 to 3000 |
| Cc1nc2c(-c3ccc(F)cc3F)cc(N3C[C@@H](C)O[C@@H](c4cnn(C5CC5)c4)C3)nc2c(=O)n1C [I-110, 6-((2S,6R)-2-(1-cyclopropyl-1H-pyrazol-4-yl)-6-methylmorpholino)-8-(2,4-difluorophenyl)-2,3-dimethylpyrido[3,2-d]pyrimidin-4 (3H)-one] | ≤ 50 |
| Cc1cc2c(-c3ccc(C(F)(F)F)cc3F)nc(N3C[C@@H](C)O[C@@H](c4cnn(C5CC5)c4)C3)cc2c(=O)n1C [I-79, 7-((2S,6R)-2-(1-cyclopropyl-1H-pyrazol-4-yl)-6-methylmorpholino)-5-(2-fluoro-4-(trifluoromethyl)phenyl)-2,3-dimethyl-2,6-naphthyridin-1 (2H)-one] | ≤ 50 |
| Cc1nc2c(-c3ccc(F)cc3F)nc([C@H]3CCO[C@@H](c4cnn(C5CC5)c4)C3)nc2c(=O)n1C [I-105, 6-((2R,4S)-2-(1-cyclopropyl-1H-pyrazol-4-yl)tetrahydro-2H-pyran-4-yl)-8-(2,4-difluorophenyl)-2,3-dimethylpyrimido[5,4-d]pyrimidin-4 (3H)-one] | 50 to 500 |

Second part, the compound after the results:

| EC50 [nM] | SMILES |
| --- | --- |
| ≤ 50 | Cc1cc([C@H]2CC(c3nc(-c4ccc(Cl)cc4F)c4nc(C)n(C)c(=O)c4n3)CCO2)ccn1 (stereo partly drawn) [I-188, 8-(4-chloro-2-fluoro-phenyl)-2,3-dimethyl-6-[(2R)-2-(2-methyl-4-pyridyl)tetrahydropyran-4-yl]pyrimido[5,4-d]pyrimidin-4-one] |
| ≤ 50 | C[C@@H]1CN(c2nc(-c3cc(F)c(F)cc3F)c3cnn(C)c(=O)c3n2)C[C@H](c2cnn(C3CC3)c2)O1 [I-218, 2-((2S,6R)-2-(1-cyclopropyl-1H-pyrazol-4-yl)-6-methylmorpholino)-7-methyl-4-(2,4,5-trifluorophenyl)pyrimido[4,5-d]pyridazin-8 (7H)-one] |
| ≤ 50 | Cc1nc2c(C3CCCCC3)nc(N3C[C@@H](C)O[C@@H](c4cnn(C5CC5)c4)C3)nc2c(=O)n1C [I-208, 8-cyclohexyl-6-((2S,6R)-2-(1-cyclopropyl-1H-pyrazol-4-yl)-6-methylmorpholino)-2,3-dimethylpyrimido[5,4-d]pyrimidin-4 (3H)-one] |
| ≤ 50 | Cc1cc([C@H]2CN(c3nc(-c4ccc(F)cc4F)c4nc(C)n(C)c(=O)c4n3)C[C@@H](C)O2)ccn1 [I-213, 8-(2,4-difluorophenyl)-2,3-dimethyl-6-[(2R, 6S)-2-methyl-6-(2-methyl-4-pyridyl)morpholin-4-yl]pyrimido[5,4-d]pyrimidin-4-one] |
| ≤ 50 | C[C@@H]1CN(c2nc(-c3ccc(C(F)(F)F)nc3)c3cnn(C)c(=O)c3n2)C[C@H](c2cnn(C3CC3)c2)O1 [I-198, 2-[(2S, 6R)-2-(1-cyclopropylpyrazol-4-yl)-6-methyl-morpholin-4-yl]-7-methyl-4-[6-(trifluoromethyl)-3-pyridyl]pyrimido[4,5-d]pyridazin-8-one] |
| ≤ 50 | Cc1ccc(-c2nc(N3C[C@@H](C)O[C@@H](c4cnn(C5CC5)c4)C3)nc3c(=O)n(C)ncc23)c(F)c1 [I-203, 2-((2S,6R)-2-(1-cyclopropyl-1H-pyrazol-4-yl)-6-methylmorpholino)-4-(2-fluoro-4-methylphenyl)-7-methylpyrimido[4,5-d]pyridazin-8 (7H)-one] |
| ≤ 50 | CCn1ncc2c(-c3ccc(Cl)cc3F)nc(N3C[C@@H](C)O[C@@H](c4cnn(C5CC5)c4)C3)nc2c1=O [I-193, 4-(4-chloro-2-fluorophenyl)-2-((2S, 6R)-2-(1-cyclopropyl-1H-pyrazol-4-yl)-6-methylmorpholino)-7-ethyl-pyrimido[4,5-d]pyridazin-8 (7H)-one] |

Same assay, conditions: Table D; HEK293 cells expressing human TREM2 and DAP12; pSyk AlphaLisa; 45 minutes at room temperature

| EC50 [nM] | SMILES |
| --- | --- |
| ≤ 50 | Cc1nc2cc(N3CCOC(c4cc[nH]c(=O)c4)C3)nc(C34CC(C(F)(F)F)(C3)C4)c2c(=O)n1C (stereo not shown) [compound 4, 2,3-dimethyl-7-(2-(2-oxo-1,2-dihydropyridin-4-yl)morpholino)-5-(3-(trifluoromethyl)bicyclo[1.1.1]pentan-1-yl)pyrido[4,3-d]pyrimidin-4(3H)-one] |
| 3000 to 100000 | Cc1nc2cc(N3CCO[C@H](c4cc[nH]c(=O)c4)C3)nc(-c3ccc(F)cc3F)c2c(=O)n1C [compound 3, (R)-5-(2,4-difluorophenyl)-2,3-dimethyl-7-(2-(2-oxo-1,2-dihydropyridin-4-yl)morpholino)pyrido[4,3-d]pyrimidin-4(3H)-one] |
| 500 to 3000 | Cc1nc2nc(-c3ccc(F)cc3F)cc(C3CCOC(c4cnn(C5CC5)c4)C3)c2c(=O)n1C (stereo not shown) [compound 5, 5-(2-(1-cyclopropyl-1H-pyrazol-4-yl)tetrahydro-2H-pyran-4-yl)-7-(2,4-difluorophenyl)-2,3-dimethylpyrido[2,3-d]pyrimidin-4(3H)-one] |
| 50 to 500 | Cc1nc2cc(N3CCOC(c4cc[nH]c(=O)c4)C3)nc(-c3ccc(F)cc3F)c2c(=O)n1C (stereo not shown) [compound 1, 5-(2,4-difluorophenyl)-2,3-dimethyl-7-(2-(2-oxo-1,2-dihydropyridin-4-yl)morpholino)pyrido[4,3-d]pyrimidin-4(3H)-one] |
